Measurements taken from patent US20110077270A1, “Compositions and Methods for Treating Ocular Inflammation with Lower Risk of Increased Intraocular Pressure” (priority 2009, published 2011).
Where “and” joins values, the source holds several entries; their conditions need not be identical. Equal values may be shown once. Read-outs that look alike come from different tables or passages of the source.

Legend:
[1] = tested on: MPO activity in iris-ciliary body; assay: Myeloperoxidase (MPO) activity in iris-ciliary body, rabbit paracentesis model; assay type: in vivo; details: for MPO Unit/g: iris-ciliary body samples collected after the second paracentesis, individual eye samples; for MPO activity in iris-ciliary body, Mean: after second paracentesis, group mean
Procedure: Each rabbit was placed in a restraint device and tagged with the alphanumeric code. The formulations were instilled (50 μl) into the conjunctival sac of both eyes 180, 120, 90 and 30 min before the first paracentesis; then 15, 30, 90 min after the first paracentesis. To perform the first paracentesis the animals were anaesthetized by intravenous injection of 5 mg/kg Zoletil® (Virbac; 2.5 mg/kg tiletamine HCl and 2.5 mg/kg zolazepam HCl) and one drop of local anesthetic (Novesina®, Novartis) was administered to the eye. Anterior chamber paracentesis was performed with a 26 G needle attached to a tuberculin syringe; the needle was introduced into the anterior chamber through the cornea, taking care not to damage the tissues. Two hours after the first paracentesis, the animals were sacrificed with 0.4 ml Tanax® (Intervet International B.V.) and the second paracentesis was performed. About 100 μl of aqueous humor were removed at the second paracentesis. Aqueous humor was immediately split in four aliquots and stored at −80° C. until analysis. Then both eyes were enucleated and the iris-ciliary body was carefully excised, placed in polypropylene tubes, and stored at −80° C. until analysis.
The activity of MPO was measured as previously described by Williams et al.[5] The iris-ciliary bodies were carefully dried, weighed and immersed in 1 ml of hexa-decyl-trimethyl-ammonium bromide solution. Then, the samples were sonicated for 10 sec on ice by a ultrasound homogenizer (HD 2070, Bandelin electronic), freeze-thawed three times, sonicated for 10 sec and centrifuged at 14,000 g for 10 min to remove cellular debris. An aliquot of the supernatant ([…] was diluted to 3 ml with the o-dianisidine 2HCl/H2O2 solution. The change in absorbance at 460 nm was continuously monitored for 5 min by a spectrophotometer (UV/Vis Spectrometer Lambda EZ 201; Perkin Elmer). The slope of the line (Δ/min) was determined for each sample and used to calculate the number of units of MPO in the tissue as follows:
were ε=11.3 mM^−1. Values were expressed as units of MPO/g of tissue.

[2] = tested on: myocilin protein in CM of monkey TM cells; assay: Myocilin protein in conditioned media of monkey TM cells (Western blot); assay type: cell-based, rhesus monkeys (Macaca mulatta); details: for EC50: nine monkey TM cell strains; for Efficacy ± SE (weighted average; %): estimated efficacy at 300 nM for inducing myocilin protein expression, normalized to DEX (100%), nine experiments (one per strain)
Procedure: (§1) For each study, up to nine TM cell strains, each derived from an individual monkey, were tested separately. Cells were thawed and seeded into 12- or 48-well clusters (Falcon, BD Biosciences; 150,000 and 30,000 cells/well, respectively) in proliferation medium. When cells were 75% to 90% confluent proliferation medium was replaced by a 5:4 mixture of HESFM and Dulbecco's MEM, respectively, supplemented with 10% FBS, with added taurine, ascorbic acid phosphate, glutathione, and antibiotic as for proliferation medium (above), and with 2.72 g/L glucose and 1.72 g/L fructose. At confluence, the medium was changed to Dulbecco's MEM, containing 10% FBS^40, ascorbic acid phosphate, antibiotic, 2.72 g/L glucose and 1.72 g/L fructose. Cells were maintained as stable, confluent monolayers in this latter medium for 4 to 7 days before experimental treatments commenced.
All treatments, including media for vehicle control samples, contained a final DMSO concentration of 0.1% (v/v) across the concentration ranges selected. Treatments lasted 96 hours, with one exchange of medium on the third treatment day. The final 48-hr conditioned media (“CM”) samples were collected in their entirety (0.5 ml), centrifuged briefly to remove particulates, aliquoted, and stored at −20° C. until thawed for analysis.
Undiluted CM was combined with denaturing 4× sample buffer containing 2% SDS, and samples were loaded at equivalent protein content onto 4-20% Tris-HCl polyacrylamide gels (BioRad, Hercules, Calif.). After electrophoresis, proteins underwent wet transfer to […] nitrocellulose (BioRad) for immunoblotting. The filters were blocked with 5% (w/v) nonfat dry milk (BioRad) in Tris-buffered saline plus 0.02% (v/v) Tween-20 (“TBST”; Tween-20 from Calbiochem, San Diego, Calif.), and incubated with a 1:2000 dilution (from 200 μg/ml) of goat anti-recombinant human myocilin antibody (R&D Systems, Minneapolis, Minn.) in blocking buffer, overnight at 4° C. After washing in TBST, the filters were incubated with a 1:25,000 dilution (from 0.8 mg/ml) of horseradish peroxide-conjugated mouse anti-goat IgG (H+L) (Pierce Biotechnology, Rockford, Ill.) in blocking buffer, for 90 minutes at room temperature. After washing in TBST, the blots were developed in SuperSignal® West Dura Extended Duration Substrate (Pierce) for chemiluminescent detection. Bands corresponding to myocilin were digitally captured and stored using a FluorChem Imager (Alpha-Innotech, San Leandro, Calif.), with all blots receiving equal exposure/capture times. The imager system software was then used to calculate pixel density for equivalent rectangular areas incorporating the bands.
(§2) Data underwent Box-Cox transformations for one- or two-way analysis of variance (ANOVA), followed by the Tukey-Kramer test, using JMP software (SAS, Cary, N.C.). The specific transformations used for analyses are mentioned in the figure legends. For each set of triplicate samples from the individual monkey TM cell strains tested, Western blot densitometry values for myocilin protein detected in CM (as geometric means), and relative abundance of myocilin mRNA (as geometric means), were plotted as a function of drug concentrations. P-values less than 0.05 were considered statistically significant. Dose-response curve data were fitted to a re-parameterized four-parameter logistic equation using similar methodology to that previously described, and these equations permitted estimation of the EC50 values±95% confidence intervals, for each drug treatment.

[3] = tested on: myocilin mRNA in monkey TM cells; assay: Myocilin mRNA expression in monkey TM cells (qRT-PCR); assay type: cell-based, rhesus monkeys (Macaca mulatta); details: for EC50: expression of myocilin mRNA, weighted averages, two dose-response studies each using two monkey TM cell strains
Procedure: as §1
After quantification of purified total RNA (Quant-iT RNA Assay kit, Molecular Probes, Eugene, Oreg.), equivalent amounts of this RNA were apportioned to generate first-strand cDNAs for each treatment sample, using random primers, (Affinity Script, Stratagene, La Jolla, Calif.). Oligonucleotide myocilin primers, designed based on the cynomolgus MYOC gene, and fluorescent Taqman probe (Applied Biosystems, Foster City, Calif.) were used for PCR amplification. Equal amounts of total RNA-equivalent mass (approximate range […]) reactant cDNA were added to the PCR Master Mix (Stratagene) and myocilin primers/Taqman probe. Amplification was performed in a thermocycler (Mx3005P, Stratagene), with an initial denaturation step at 95° C. for 10 min, followed by 40 cycles of 95° C. for 15 sec and 60° C. for 1 min for extension. Every run included standard controls (i.e., either without reverse transcriptase or lacking template). Relative quantities of myocilin mRNA abundance were determined using differences in threshold cycles (“Ct”) between vehicle control and drug treatments. Each sample was analyzed in triplicate wells, and the corresponding values averaged for further quantitative analysis. Myocilin mRNA abundance, expressed in proportion to vehicle control-treated samples, was calculated using the Mx3005P software.
as §2, with “Dose-response curve data were fitted to a re-parameterized four-parameter logistic equation using similar methodology to that previously described, and these equations permitted estimation of the EC50 values±95% confidence intervals, for each drug treatment.” left out

[4] = Primates, expression of myocilin protein, weighted averages, read-out: EC50 ± SE
[5] = Primates, 96 hours treatment, read-out: EC50, myocilin protein expression

EC50 [2, 4] [nM]	EC50 [2, 5] [nM]	EC50 ([3]; Primates) [nM]	SMILES	MPO Unit/g ([1]; 0.1% Dex)	MPO activity in iris-ciliary body, Mean ([1]; 0.1% topical formulation) [MPO Unit/g]	Myocilin protein level over control ([2]; 300 nM, one of the monkey TM cell strains, CM of second 48-hour period) [%]	Efficacy ± SE (weighted average; %) [2] [%]	MPO Unit/g ([1]; 0.1% BOL, listed as BOL)	Activity in rabbit paracentesis model (preliminary conclusion) ([1]; 0.1%, 0.5%, 1% topical formulations, overall conclusion across biomarkers)	MPO Unit/g ([1]; 0.5% BOL, listed as BOL)	MPO activity in iris-ciliary body, Mean ([1]; 0.5% topical formulation) [MPO Unit/g]	MPO Unit/g ([1]; 1% BOL, listed as BOL)	MPO activity in iris-ciliary body, Mean ([1]; 1% topical formulation) [MPO Unit/g]	Myocilin protein released by cultured monkey TM cells compared to DEX ([2]; 3 to 300 nM)	Emax ([2]; Primates, read-out: Maximal efficacy for myocilin protein accumulation, relative to that observed after DEX treatment, computed across all nine TM cell strains) [%]	Myocilin mRNA abundance compared with DEX ([3]; 3 to 300 nM)	Emax at 0.3 µM ([3]; Primates, read-out: Maximal efficacy for myocilin mRNA expression, relative to DEX, 300 nM, single monkey TM cell strain (FIG. 5)) [%]
14.6 ± 2.65	14.6	14.7 ± 1.27	C[C@@H]1C[C@H]2[C@@H]3CCC4=CC(=O)C=C[C@]4(C)[C@@]3(F)[C@@H](O)C[C@]2(C)[C@@]1(O)C(=O)CO [Dex, dexamethasone, reference compound]	0.71 Unit/g and 0.60 Unit/g and 1.32 Unit/g and 0.48 Unit/g (2×) and 0.39 Unit/g and 0.45 Unit/g and 0.51 Unit/g	0.618	1233	100 ± 6.09										
21 ± 4.28	21	20.8 ± 2.74	Cc1ccc2c(NCC(O)(CC(C)(C)c3cc(F)cc4c3OCC4)C(F)(F)F)cccc2n1 (stereo not shown) [BOL-303242-X]		0.971		53.12 ± 2.20	1.04 Unit/g and 1.00 Unit/g and 1.14 Unit/g and 1.06 Unit/g and 1.22 Unit/g and 0.61 Unit/g and 1.05 Unit/g and 0.65 Unit/g	active in this model	0.85 Unit/g and 0.93 Unit/g and 0.79 Unit/g and 1.03 Unit/g and 0.75 Unit/g and 0.74 Unit/g and 0.54 Unit/g and 0.58 Unit/g	0.775	0.66 Unit/g and 0.68 Unit/g and 0.49 Unit/g and 0.40 Unit/g and 0.34 Unit/g and 1.02 Unit/g and 0.31 Unit/g and 0.43 Unit/g	0.542	significantly lower levels of myocilin protein	~50	significantly lower mRNA abundance values at all doses compared with DEX	~67
